Experiments:
Assay type in all cases: in vivo
[1] = tested on: horseweed (Conyza canadensis(L.) Cron.); experiment: Example 3 pot test, foliar treatment of horseweed, growth inhibition over time; settings: for growth inhibition effect (in words): used alone, 19th day after the foliar treatment
From the text: (§1) Upland field soil was put into a 1/1,000,000 hectare pot, and seeds of horseweed (Conyza canadensis(L.) Cron.) were sown.

[2] = tested on: giant foxtail (Setaria faberi Herrm.); experiment: Example 8 pot test, foliar treatment, giant foxtail
From the text: (§2) Upland field soil was put into a 1/1,000,000 hectare pot, and seeds of goosegrass (Eleusine indica L.), barnyardgrass (Echinochloa crus-galli L.), giant foxtail (Setaria faberi Herrm.) and crabgrass (Digitaria sanguinalis L.) were sown.

[3] = tested on: wild oat (Avena fatua L.); experiment: Example 4 pot test, foliar treatment, wild oat
From the text: (§3) Upland field soil was put into a 1/1,000,000 hectare pot, and seeds of black nightshade (Solanum nigrum L.), wild oat (Avena fatua L.) and dandelion (Taraxacum officinale) were sown.

[4] = tested on: yellow nutsedge (Cyperus esculentus L.); experiment: Example 5 pot test, foliar treatment, yellow nutsedge; settings: 22nd day after foliar treatment
From the text: Upland field soil was put into a 1/1,000,000 hectare pot, and tubers of yellow nutsedge (Cyperus esculentus L.) were embedded.

[5] = tested on: Chenopodium album L. var. centrorubrum Makino; experiment: Example 9 pot test, foliar treatment, Chenopodium album var. centrorubrum
From the text: (§4) Upland field soil was put into a 1/1,000,000 hectare pot, and seeds of redroot pigweed (Amaranthus retroflexus L.), Kochia (Kochia scoparia L.) and Chenopodium album L. var. centrorubrum Makino were sown.

[6] = tested on: Kochia (Kochia scoparia L.); experiment: Example 6 pot test, foliar treatment, Kochia
From the text: (§5) Upland field soil was put into a 1/1,000,000 hectare pot, and seeds of common ragweed (Ambrosia elatior L.) and Kochia (Kochia scoparia L.) were sown.

[7] = tested on: horseweed (Conyza canadensis(L.) Cron.); experiment: Example 1 pot test, foliar treatment of horseweed, visual growth inhibition; settings: 21st day after foliar treatment
From the text: as §1

[8] = tested on: barnyardgrass (Echinochloa crus-galli L.); experiment: Example 8 pot test, foliar treatment, barnyardgrass
From the text: as §2

[9] = tested on: dandelion (Taraxacum officinale); experiment: Example 4 pot test, foliar treatment, dandelion
From the text: as §3

[10] = tested on: black nightshade (Solanum nigrum L.); experiment: Example 4 pot test, foliar treatment, black nightshade
From the text: as §3

[11] = tested on: redroot pigweed (Amaranthus retroflexus L.); experiment: Example 9 pot test, foliar treatment, redroot pigweed
From the text: as §4

[12] = tested on: crabgrass (Digitaria sanguinalis L.); experiment: Example 8 pot test, foliar treatment, crabgrass
From the text: as §2

[13] = tested on: goosegrass (Eleusine indica L.); experiment: Example 8 pot test, foliar treatment, goosegrass
From the text: as §2

[14] = tested on: horseweed (Conyza canadensis(L.) Cron.); experiment: Example 2 pot test, foliar treatment of horseweed, visual growth inhibition; settings: 19th day after foliar treatment
From the text: as §1

[15] = tested on: Kochia (Kochia scoparia L.); experiment: Example 9 pot test, foliar treatment, Kochia
From the text: as §4

[16] = tested on: common ragweed (Ambrosia elatior L.); experiment: Example 6 pot test, foliar treatment, common ragweed
From the text: as §5

SMILES: CCn1ncc(C(=O)c2ccc(S(C)(=O)=O)c(OCCOC)c2C)c1OC(C)OC(=O)OC (stereo not drawn) [Tolpyralate, tolpyralate]
- Growth inhibition rate (%) 19th day ([1]; dose 5 g/ha): 20%
- Growth inhibition rate (%) 27th day ([1]; dose 5 g/ha): 47%
- Growth inhibition rate (%) 42nd day ([1]; dose 5 g/ha): 23%
- Growth inhibition rate (%) 19th day ([1]; dose 10 g/ha): 17%
- Growth inhibition rate (%) 27th day ([1]; dose 10 g/ha): 37%
- Growth inhibition rate (%) 42nd day ([1]; dose 10 g/ha): 47%
- growth inhibition effect (in words) [1]: no sufficient growth inhibition effect
- Growth inhibition rate (%) Giant foxtail (7th day) ([2]; dose 1.5 g/ha): 10%
- Growth inhibition rate (%) Giant foxtail (7th day) ([2]; dose 3 g/ha): 30%
- Growth inhibition rate (%) Giant foxtail (7th day) ([2]; dose 5 g/ha): 40%
- Growth inhibition rate (%) Wild oat (21st day) ([3]; dose 15 g/ha): 10%
- Growth inhibition rate (%) Wild oat (21st day) ([3]; dose 30 g/ha): 28%
- Growth inhibition rate (%) Wild oat (21st day) ([3]; dose 50 g/ha): 30%
- Growth inhibition rate (%) Yellow nutsedge ([4]; dose 15 g/ha): 40%
- Growth inhibition rate (%) Yellow nutsedge ([4]; dose 30 g/ha): 50%
- Growth inhibition rate (%) Chenopodium album L. var. centrorubrum Makino (14th day) ([5]; dose 1.5 g/ha): 10%
- Growth inhibition rate (%) Chenopodium album L. var. centrorubrum Makino (14th day) ([5]; dose 3 g/ha): 10%
- Growth inhibition rate (%) Chenopodium album L. var. centrorubrum Makino (14th day) ([5]; dose 5 g/ha): 15%
- Growth inhibition rate (%) Kochia (10th day) ([6]; dose 15 g/ha): 15%
- Growth inhibition rate (%) Kochia (10th day) ([6]; dose 30 g/ha): 20%
- Growth inhibition rate (%) Kochia (10th day) ([6]; dose 50 g/ha): 15%
- Growth inhibition rate (%) ([7]; dose 15 g/ha): 33%
- Growth inhibition rate (%) ([7]; dose 30 g/ha): 30%
- Growth inhibition rate (%) ([7]; dose 50 g/ha): 30%
- Growth inhibition rate (%) Barnyardgrass (11th day) ([8]; dose 1.5 g/ha): 45%
- Growth inhibition rate (%) Barnyardgrass (11th day) ([8]; dose 3 g/ha): 45%
- Growth inhibition rate (%) Barnyardgrass (11th day) ([8]; dose 5 g/ha): 40%
- Growth inhibition rate (%) Dandelion (10th day) ([9]; dose 15 g/ha): 30%
- Growth inhibition rate (%) Dandelion (10th day) ([9]; dose 30 g/ha): 30%
- Growth inhibition rate (%) Dandelion (10th day) ([9]; dose 50 g/ha): 30%
- Growth inhibition rate (%) Black nightshade (27th day) ([10]; dose 15 g/ha): 72%
- Growth inhibition rate (%) Black nightshade (27th day) ([10]; dose 30 g/ha): 79%
- Growth inhibition rate (%) Black nightshade (27th day) ([10]; dose 50 g/ha): 78%
- Growth inhibition rate (%) Red root pigweed (8th day) ([11]; dose 1.5 g/ha): 23%
- Growth inhibition rate (%) Red root pigweed (8th day) ([11]; dose 3 g/ha): 25%
- Growth inhibition rate (%) Red root pigweed (8th day) ([11]; dose 5 g/ha): 30%
- Growth inhibition rate (%) Crabgrass (18th day) ([12]; dose 1.5 g/ha): 30%
- Growth inhibition rate (%) Crabgrass (18th day) ([12]; dose 3 g/ha): 40%
- Growth inhibition rate (%) Crabgrass (18th day) ([12]; dose 5 g/ha): 50%
- Growth inhibition rate (%) Goosegrass (5th day) ([13]; dose 1.5 g/ha): 15%
- Growth inhibition rate (%) Goosegrass (5th day) ([13]; dose 3 g/ha): 15%
- Growth inhibition rate (%) Goosegrass (5th day) ([13]; dose 5 g/ha): 23%
- Growth inhibition rate (%) ([14]; dose 125 g/ha): 33%
- Growth inhibition rate (%) ([14]; dose 250 g/ha): 37%
- Growth inhibition rate (%) Kochia (14th day) ([15]; dose 1.5 g/ha): 10%
- Growth inhibition rate (%) Kochia (14th day) ([15]; dose 3 g/ha): 23%
- Growth inhibition rate (%) Kochia (14th day) ([15]; dose 5 g/ha): 25%
- Growth inhibition rate (%) Common Ragweed (6th day) ([16]; dose 15 g/ha): 15%
- Growth inhibition rate (%) Common Ragweed (6th day) ([16]; dose 30 g/ha): 15%
- Growth inhibition rate (%) Common Ragweed (6th day) ([16]; dose 50 g/ha): 10%

SMILES: COC(=O)CCNC(=O)C(C)Sc1cc(-n2c(=O)cc(C(F)(F)F)n(C)c2=O)c(F)cc1Cl (stereo not drawn) [Tiafenacil, tiafenacil]
- Growth inhibition rate (%) 19th day ([1]; dose 50 g/ha): 23%
- Growth inhibition rate (%) 27th day ([1]; dose 50 g/ha): 20%
- Growth inhibition rate (%) 42nd day ([1]; dose 50 g/ha): 20%
- Growth inhibition rate (%) 19th day ([1]; dose 100 g/ha): 50%
- Growth inhibition rate (%) 27th day ([1]; dose 100 g/ha): 43%
- Growth inhibition rate (%) 42nd day ([1]; dose 100 g/ha): 30%
- growth inhibition effect (in words) [1]: no sufficient growth inhibition effect
- Growth inhibition rate (%) Giant foxtail (7th day) ([2]; dose 2.5 g/ha): 80%
- Growth inhibition rate (%) Yellow nutsedge ([4]; dose 50 g/ha): 35%
- Growth inhibition rate (%) Chenopodium album L. var. centrorubrum Makino (14th day) ([5]; dose 1 g/ha): 3%
- Growth inhibition rate (%) Chenopodium album L. var. centrorubrum Makino (14th day) ([5]; dose 2 g/ha): 30%
- Growth inhibition rate (%) Kochia (10th day) ([6]; dose 25 g/ha): 30%
- Growth inhibition rate (%) Kochia (10th day) ([6]; dose 50 g/ha): 30%
- Growth inhibition rate (%) ([7]; dose 25 g/ha): 33%
- Growth inhibition rate (%) ([7]; dose 50 g/ha): 40%
- Growth inhibition rate (%) Barnyardgrass (11th day) ([8]; dose 2.5 g/ha): 30%
- Growth inhibition rate (%) Dandelion (10th day) ([9]; dose 25 g/ha): 30%
- Growth inhibition rate (%) Black nightshade (27th day) ([10]; dose 25 g/ha): 58%
- Growth inhibition rate (%) Red root pigweed (8th day) ([11]; dose 1 g/ha): 50%
- Growth inhibition rate (%) Crabgrass (18th day) ([12]; dose 2.5 g/ha): 30%
- Growth inhibition rate (%) ([14]; dose 25 g/ha): 23%
- Growth inhibition rate (%) Kochia (14th day) ([15]; dose 1 g/ha): 13%
- Growth inhibition rate (%) Kochia (14th day) ([15]; dose 2 g/ha): 23%
- Growth inhibition rate (%) Common Ragweed (6th day) ([16]; dose 25 g/ha): 50%
- Growth inhibition rate (%) Common Ragweed (6th day) ([16]; dose 50 g/ha): 50%

Source: patent US12096773B2, “Herbicidal composition” (ISHIHARA SANGYO KAISHA, LTD., priority 2019, dated 2024)
